Measured values reported in patent publication US6555692B1, “Preparation and use of bifunctional molecules having DNA sequence binding specificity” (California Institute of Technology, priority 1996, dated 2003).

Test system: 5′-AACCAAGTCTTGGTA-3′
Test: Association constants, recognition of 15 base pairs
Details: for Specificity Center mismatch: match vs 5′-AACCAACTGTTGGTA-3′; for Specificity Edge mismatch: match vs 5′-AACCAAGTCTTGCGA-3′; for Ka 5′-AACCAAGTCTTGGTA-3′: Table 7, C3-OH polyamides, match site; for Specificity 5′-AACCAACTGTTGGTA-3′: Table 7, center mismatch; for Specificity 5′-AACCAAGTCTTGCGA-3′: Table 7, edge mismatch
[1] = Table 5, ImPyPy-X-ImImPy-γ-PyPyPy-β-Dp, 24° C., pH 7.0
[2] = Table 6, ImImPy-γ-PyPyPy-X-ImPyPy-β-Dp

Compound | Ka Match [1] [M⁻¹] | Specificity Center mismatch (Table 5) | Specificity Edge mismatch (Table 5) | other results
CN(C)CCCNC(=O)CCNC(=O)c1cc(NC(=O)c2cc(NC(=O)c3cc(NC(=O)CCCNC(=O)c4cc(NC(=O)c5nc(NC(=O)c6nc(NC(=O)CCCCCNC(=O)c7cc(NC(=O)c8cc(NC(=O)c9nccn9C)cn8C)cn7C)cn6C)cn5C)cn4C)cn3C)cn2C)cn1C [ImPyPy-C6-ImImPy-γ-PyPyPy-β-Dp, ImPyPy-X-ImImPy-γ-PyPyPy-β-Dp] | 2e+08 | 12 | 15 | 
CN(C)CCCNC(=O)CCNC(=O)c1cc(NC(=O)c2cc(NC(=O)c3nc(NC(=O)CCNC(=O)CCNC(=O)c4cc(NC(=O)c5cc(NC(=O)c6cc(NC(=O)CCCNC(=O)c7cc(NC(=O)c8nc(NC(=O)c9nccn9C)cn8C)cn7C)cn6C)cn5C)cn4C)cn3C)cn2C)cn1C [ImImPy-γ-PyPyPy-β-β-ImPyPy-β-Dp, ImImPy-γ-PyPyPy-X-ImPyPy-β-Dp] |  |  |  | Ka Match [2]: 1e+10 M⁻¹; Specificity Center mismatch (Table 6): 1; Specificity Edge mismatch (Table 6): 1
CN(C)CCCNC(=O)CCNC(=O)c1cc(NC(=O)c2cc(NC(=O)c3nc(NC(=O)CCCCCNC(=O)c4cc(NC(=O)c5cc(NC(=O)c6cc(NC(=O)CCCNC(=O)c7cc(NC(=O)c8nc(NC(=O)c9nccn9C)cn8C)cn7C)cn6C)cn5C)cn4C)cn3C)cn2C)cn1C [ImImPy-γ-PyPyPy-C6-ImPyPy-β-Dp, ImImPy-γ-PyPyPy-X-ImPyPy-β-Dp] |  |  |  | Ka Match [2]: 2e+08 M⁻¹; Specificity Center mismatch (Table 6): 1; Specificity Edge mismatch (Table 6): 2
CN(C)CCCNC(=O)CCNC(=O)c1cc(NC(=O)c2cc(NC(=O)c3nc(NC(=O)CCCCCCNC(=O)c4cc(NC(=O)c5cc(NC(=O)c6cc(NC(=O)CCCNC(=O)c7cc(NC(=O)c8nc(NC(=O)c9nccn9C)cn8C)cn7C)cn6C)cn5C)cn4C)cn3C)cn2C)cn1C [ImImPy-γ-PyPyPy-C7-ImPyPy-β-Dp, ImImPy-γ-PyPyPy-X-ImPyPy-β-Dp] |  |  |  | Ka Match [2]: 1e+09 M⁻¹; Specificity Center mismatch (Table 6): 1; Specificity Edge mismatch (Table 6): 1
CN(C)CCCNC(=O)CCNC(=O)c1cc(NC(=O)c2cc(NC(=O)c3cc(NC(=O)CCCNC(=O)c4cc(NC(=O)c5nc(NC(=O)c6nc(NC(=O)CCCCCCCNC(=O)c7cc(NC(=O)c8cc(NC(=O)c9nccn9C)cn8C)cn7C)cn6C)cn5C)cn4C)cn3C)cn2C)cn1C [ImPyPy-C8-ImImPy-γ-PyPyPy-β-Dp, ImPyPy-X-ImImPy-γ-PyPyPy-β-Dp] | 2e+08 | 10 | 10 | 
CN(C)CCCNC(=O)CCNC(=O)c1cc(NC(=O)c2cc(NC(=O)c3nc(NC(=O)CCCCNC(=O)c4cc(NC(=O)c5cc(NC(=O)c6cc(NC(=O)CCCNC(=O)c7cc(NC(=O)c8nc(NC(=O)c9nccn9C)cn8C)cn7C)cn6C)cn5C)cn4C)cn3C)cn2C)cn1C [ImImPy-γ-PyPyPy-C5-ImPyPy-β-Dp, ImImPy-γ-PyPyPy-X-ImPyPy-β-Dp] |  |  |  | Ka Match [2]: 1e+09 M⁻¹; Specificity Center mismatch (Table 6): 2; Specificity Edge mismatch (Table 6): 2
CN(C)CCCNC(=O)CCNC(=O)c1cc(NC(=O)c2cc(NC(=O)c3cc(NC(=O)CCCNC(=O)c4cc(NC(=O)c5nc(NC(=O)c6nc(NC(=O)CCCCCCNC(=O)c7cc(NC(=O)c8cc(NC(=O)c9nccn9C)cn8C)cn7C)cn6C)cn5C)cn4C)cn3C)cn2C)cn1C [ImPyPy-C7-ImImPy-γ-PyPyPy-β-Dp, ImPyPy-X-ImImPy-γ-PyPyPy-β-Dp] | 2e+08 | 2 | 2 | 
CN(C)CCCNC(=O)CCNC(=O)c1cc(NC(=O)c2cc(NC(=O)c3cc(NC(=O)CCCNC(=O)c4cc(NC(=O)c5nc(NC(=O)c6nc(NC(=O)CCCCNC(=O)c7cc(NC(=O)c8cc(NC(=O)c9nccn9C)cn8C)cn7C)cn6C)cn5C)cn4C)cn3C)cn2C)cn1C [ImPyPy-C5-ImImPy-γ-PyPyPy-β-Dp, ImPyPy-X-ImImPy-γ-PyPyPy-β-Dp] | 4e+08 | 11 | 19 | 
CN(C)CCCNC(=O)CCNC(=O)c1cc(NC(=O)c2cc(NC(=O)c3cc(NC(=O)CCCNC(=O)c4cc(NC(=O)c5nc(NC(=O)c6nc(NC(=O)CCCNC(=O)c7cc(NC(=O)c8cc(NC(=O)c9nccn9C)cn8C)cn7C)cn6C)cn5C)cn4C)cn3C)cn2C)cn1C [ImPyPy-γ-ImImPy-γ-PyPyPy-β-Dp, ImPyPy-X-ImImPy-γ-PyPyPy-β-Dp] | 1e+07 | 1 | 1 | 
Cn1cc(NC(=O)c2cc(NC(=O)c3cc(NC(=O)CCCNC(=O)c4cc(NC(=O)c5nc(NC(=O)c6nc(NC(=O)CCCCNC(=O)c7cc(NC(=O)c8cc(NC(=O)c9nccn9C)cn8C)cn7C)cn6C)cn5C)cn4C)cn3C)cn2C)cc1C(=O)NCCCO [ImPyPy-C5-ImImPy-γ-PyPyPy-C3—OH] |  |  |  | Ka 5′-AACCAAGTCTTGGTA-3′: 3 × 10^7; Specificity 5′-AACCAACTGTTGGTA-3′: >3; Specificity 5′-AACCAAGTCTTGCGA-3′: >3
CN(C)CCCNC(=O)CCNC(=O)c1cc(NC(=O)c2cc(NC(=O)c3cc(NC(=O)CCCNC(=O)c4cc(NC(=O)c5nc(NC(=O)c6nc(NC(=O)CCCCNC(=O)CCNC(=O)c7cc(NC(=O)c8cc(NC(=O)c9nccn9C)cn8C)cn7C)cn6C)cn5C)cn4C)cn3C)cn2C)cn1C [ImPyPy-β-C5-ImImPy-γ-PyPyPy-β-Dp, ImPyPy-X-ImImPy-γ-PyPyPy-β-Dp] | 1e+08 | 2 | 2 | 
CN(C)CCCNC(=O)CCNC(=O)c1cc(NC(=O)c2cc(NC(=O)c3cc(NC(=O)CCCNC(=O)c4cc(NC(=O)c5nc(NC(=O)c6nc(NC(=O)CCNC(=O)CCNC(=O)c7cc(NC(=O)c8cc(NC(=O)c9nccn9C)cn8C)cn7C)cn6C)cn5C)cn4C)cn3C)cn2C)cn1C [ImPyPy-β-β-ImImPy-γ-PyPyPy-β-Dp, ImPyPy-X-ImImPy-γ-PyPyPy-β-Dp] | 3e+08 | 2 | 2 | 
Cn1cc(NC(=O)c2cc(NC(=O)c3cc(NC(=O)CCCNC(=O)c4cc(NC(=O)c5nc(NC(=O)c6nc(NC(=O)CCCCCNC(=O)c7cc(NC(=O)c8cc(NC(=O)c9nccn9C)cn8C)cn7C)cn6C)cn5C)cn4C)cn3C)cn2C)cc1C(=O)NCCCO [ImPyPy-C6-ImImPy-γ-PyPyPy-C3—OH] |  |  |  | Ka 5′-AACCAAGTCTTGGTA-3′: 3 × 10^7; Specificity 5′-AACCAACTGTTGGTA-3′: 2; Specificity 5′-AACCAAGTCTTGCGA-3′: 2
Cn1cc(NC(=O)c2cc(NC(=O)c3cc(NC(=O)CCCNC(=O)c4cc(NC(=O)c5nc(NC(=O)c6nc(NC(=O)CCNC(=O)CCNC(=O)c7cc(NC(=O)c8cc(NC(=O)c9nccn9C)cn8C)cn7C)cn6C)cn5C)cn4C)cn3C)cn2C)cc1C(=O)NCCCO [ImPyPy-β-β-ImImPy-γ-PyPyPy-C3—OH] |  |  |  | Ka 5′-AACCAAGTCTTGGTA-3′: 1 × 10^8; Specificity 5′-AACCAACTGTTGGTA-3′: 3; Specificity 5′-AACCAAGTCTTGCGA-3′: 3
